For series [1] the following is noted: powder; cited from earlier work.
The subject of series [2] is patients with agitation associated with Alzheimer's disease. Kind of series: Phase 2/3 randomized, double-blind, controlled clinical trial in agitation associated with Alzheimer's disease. Format: in vivo, human. As to the method:
A Phase 2/3 randomized, double-blind, controlled, multicenter, U.S. clinical trial was conducted to evaluate the efficacy and safety of DM/BU in patients with agitation associated with Alzheimer's disease. A total of 366 patients with a diagnosis of probable Alzheimer's disease and clinically meaningful agitation associated with their disease were randomized, initially in a 1:1:1 ratio, to receive DM/BU (dextromethorphan/bupropion, dose escalated from 30 mg/105 mg once daily in the first week, to 30 mg/105 mg twice daily in the second week, to 45 mg/105 mg twice daily thereafter), bupropion (dose escalated from 105 mg once daily in the first week to 105 mg twice daily thereafter), or matching placebo, for 5 weeks. An independent data monitoring committee performed an interim futility analysis and recommended no further randomization to the bupropion arm. Subsequently, patients were randomized in a 1:1 ratio to receive DM/BU or placebo. Total patients randomized were 159, 49, and 158 to the DM/BU, bupropion, and placebo arms, respectively. The mean Cohen-Mansfield Agitation Inventory (CMAI) total scores at baseline were 60.8, 66.1, and 59.3, respectively for the DM/BU, bupropion, and placebo groups. The minimum score on the CMAI is 29, corresponding to the total absence of symptoms, with higher scores corresponding to greater agitation. The primary endpoint of the study was the change from baseline in the CMAI total score at Week 5. P-values were calculated based on least square mean estimates.
Inclusion criteria included male or female […], diagnosis of probable Alzheimer's disease, according to the 2011 NIA-AA criteria, diagnosis of agitation, according to the IPA provisional definition of agitation, MMSE score between 10 and 24, an NPI-AA score ≥4, and community dwelling. Exclusion criterial included dementia of non-Alzheimer's type and current use of a selective serotonin reuptake inhibitor and/or a serotonin and norepinephrine inhibitor (SSRI/SNRI).

Structures can show the parent of a compound that is named as a salt.

For the compound `COc1ccc2c(c1)[C@]13CCCC[C@@H]1[C@H](C2)N(C)CC3` [Dextromethorphan hydrobromide, morphinan, 3-methoxy-17-methyl-, (9α, 13α, 14α), hydrobromide monohydrate], the solubility in water entry in series [1] was “sparingly soluble in water”.
In the case of `CC(NC(C)(C)C)C(=O)c1cccc(Cl)c1.Cl` (racemic) [Bupropion hydrochloride, (±)-1-(3-chlorophenyl)-2-[(1,1-dimethylethyl)amino]-1-propanone hydrochloride], in series [1], the solubility in water result is reported as “highly soluble in water”.
On to `CC(NC(C)(C)C)C(=O)c1cccc(Cl)c1` (stereo not shown) [Bupropion, bupropion], for which, in series [2] (Week 5, primary endpoint, placebo 11.5, p=0.010), the “mean reduction from baseline in CMAI total score” value came to 10.0 points. Besides, in series [2] (both, human, in vivo, 5 weeks), the Diarrhea is 3 (6.1%) number of subjects (% of subjects), the “Discontinuation due to AEs” value was 1 (2.0%) number of subjects (% of subjects), the Dizziness was 5 (10.2%) number of subjects (% of subjects) and the Falls is listed as 7 (14.3%) number of subjects (% of subjects). In addition, in series [2] (both, human, in vivo, 5 weeks), the Fatigue is recorded as 5 (10.2%) number of subjects (% of subjects), the Headache is 3 (6.1%) number of subjects (% of subjects), the Insomnia is reported as 3 (6.1%) number of subjects (% of subjects) and the “Serious AEs” value is listed as 4 (8.2%) number of subjects (% of subjects). In addition, in series [2] (both, human, in vivo, 5 weeks), the Somnolence was 2 (4.1%) number of subjects (% of subjects); the “Subjects with any TEAE” value is listed as 30 (61.2%) number of subjects (% of subjects); the “diarrhea, adverse event rate” value was determined as 6.1%; the “dizziness, adverse event rate” value is recorded as 10.2%. In series [2] (both, human, in vivo, 5 weeks), the “rate of discontinuation due to adverse events” value is listed as 2.0%; the “serious adverse events, patients” value is on record as 8.2%; the “somnolence, adverse event rate” value is recorded as 4.1%. In addition, in series [2] (one in the placebo arm), the deaths result is “one”.
